Measurements taken from ChEMBL document CHEMBL1201862, “PubChem BioAssay data set” (2004).
Active and inactive are the calls of the source.

How the values were obtained:
[1] = Luminescent dose response cell-based high throughput screening assay for inhibitors of the Janus kinase 2 mutant JAK2V617F. [Related pubchem assays: 1446 (Primary screen.), 1521 (Confirmation assay.), 1486 (Counter screen.)]; type: functional
INS1 = experiment: INS-1E survival protection against cytokine death – cell-based, luminescence, retest, dose response (AID 449756); type: functional; conditions: Rattus norvegicus;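 further: cell death triggered by IL-1 beta plus TNF-alpha plus IFN-gamma mixture; protective hits raise ATP signal compared with cytokine alone wells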
[2] = M. tuberculosis H37Rv growth inhibitors, H37Rv strain (AID 1626); type: functional
[3] = target: T1, Kappa-type opioid receptor (Homo sapiens, UniProt P41145); type: functional
Beta-galactosidase = Beta-galactosidase (Escherichia coli, UniProt Q8VNN2); type: functional
[4] = target: T1, Kappa-type opioid receptor; type: functional; remark: listed apart in the source
[5] = mitochondrial function rescue without frataxin homolog – Friedreich's ataxia, plus single-dose screen, dose response (AID 1465); type: functional;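 further: yeast depleted of Yfh1p frataxin homolog grown on glycerol needing respiration; WST-1 tetrazolium dye reduction as measure of cellular dehydrogenase metabolic activity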
[6] = viability loss in HeLa cells – cytotoxicity control for MgcRacGAP inhibitor project, dose response (AID 624300); type: functional
[7] = target: T2, Rac GTPase-activating protein 1 (Homo sapiens, UniProt Q9H0H5); experiment: blockers of MgcRacGAP-driven Rac1 GTP hydrolysis – biochemical, ADP Hunter fluorescence, primary and confirmatory, confirmation (AID 624330); type: functional
T2 sequence (Q9H0H5 whole entry): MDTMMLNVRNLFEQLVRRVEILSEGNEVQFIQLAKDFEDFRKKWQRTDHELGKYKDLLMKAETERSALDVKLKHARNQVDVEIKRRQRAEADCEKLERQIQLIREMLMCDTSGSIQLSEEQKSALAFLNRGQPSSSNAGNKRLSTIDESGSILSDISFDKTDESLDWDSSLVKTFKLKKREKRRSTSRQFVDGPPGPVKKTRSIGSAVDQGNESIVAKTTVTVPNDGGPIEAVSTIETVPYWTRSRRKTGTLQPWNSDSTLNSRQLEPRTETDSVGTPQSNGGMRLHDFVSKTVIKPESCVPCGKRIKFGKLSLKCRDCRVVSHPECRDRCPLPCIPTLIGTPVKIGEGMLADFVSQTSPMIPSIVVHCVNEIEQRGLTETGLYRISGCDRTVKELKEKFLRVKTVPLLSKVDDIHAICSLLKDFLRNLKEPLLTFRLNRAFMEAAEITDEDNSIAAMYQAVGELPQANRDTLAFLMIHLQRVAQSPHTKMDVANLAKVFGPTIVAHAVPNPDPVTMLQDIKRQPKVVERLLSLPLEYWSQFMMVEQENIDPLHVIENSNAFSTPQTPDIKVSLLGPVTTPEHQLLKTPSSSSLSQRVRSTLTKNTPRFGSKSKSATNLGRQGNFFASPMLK

[8] = target: Matrix metalloproteinase-14 (Homo sapiens, UniProt P50281); experiment: Dose Response confirmation of uHTS hits for a small molecule inhibitors of MT1-MMP activation in a fluorescence assay set 1.; type: functional
[9] = target: Sphingosine 1-phosphate receptor 4 (Homo sapiens, UniProt O95977); experiment: Fluorescence dose response cell-based high throughput screening assay for antagonists of the Sphingosine 1-Phosphate Receptor 4 (S1P4). [Related pubchem assays: 1524 (Confirmation in triplicates.), 1510 (Primary screen.)]; type: functional
[10] = target: Sphingosine 1-phosphate receptor 1 (Homo sapiens, UniProt P21453); type: functional;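 further: Tango beta-arrestin reporter U2OS cells stimulated with S1P near its EC80; inhibitor potency meaning antagonism of receptor activation by the natural agonist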
Vero = experiment: cells; type: functional; conditions: Chlorocebus sabaeus
[11] = target: T3, Hepatocyte nuclear factor 4-alpha (Homo sapiens, UniProt P41235); type: functional, cell-based;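 further: biochemical luminescence-based dose-response counterscreen measuring inhibition of HNF4 dimerization, run alongside a screen for blockers of ABHD5–perilipin-5 interaction; split luciferase complementation of HNF4 fusion proteins in cell lysate measuring dimerization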
T3 sequence (P41235 whole entry): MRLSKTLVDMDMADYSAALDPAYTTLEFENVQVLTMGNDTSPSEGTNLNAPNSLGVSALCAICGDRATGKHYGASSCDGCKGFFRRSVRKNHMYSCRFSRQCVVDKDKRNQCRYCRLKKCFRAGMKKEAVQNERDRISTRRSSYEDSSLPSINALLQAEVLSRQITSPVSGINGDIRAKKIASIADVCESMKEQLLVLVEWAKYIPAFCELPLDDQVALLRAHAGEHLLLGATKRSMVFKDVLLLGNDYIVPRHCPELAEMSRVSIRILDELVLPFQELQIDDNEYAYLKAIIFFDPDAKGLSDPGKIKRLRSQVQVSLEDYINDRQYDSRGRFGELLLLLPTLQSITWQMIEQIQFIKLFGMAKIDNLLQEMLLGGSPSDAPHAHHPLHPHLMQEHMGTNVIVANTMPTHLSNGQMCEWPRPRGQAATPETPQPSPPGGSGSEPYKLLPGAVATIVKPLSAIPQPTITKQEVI

[12] = reduced cellular PGC1a acetyl-lysine signal – cell-based, cherry-picked samples, dose response (AID 720514); type: functional;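 further: potency may reflect raised or lowered acetylation signal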
Estrogen receptor = target: T4, Estrogen receptor (Homo sapiens, UniProt P03372); experiment: ERα coactivator recruitment enhancers – biochemical, TR-FRET, ERα LBD, dose response (AID 737)
T4 sequence (P03372 whole entry): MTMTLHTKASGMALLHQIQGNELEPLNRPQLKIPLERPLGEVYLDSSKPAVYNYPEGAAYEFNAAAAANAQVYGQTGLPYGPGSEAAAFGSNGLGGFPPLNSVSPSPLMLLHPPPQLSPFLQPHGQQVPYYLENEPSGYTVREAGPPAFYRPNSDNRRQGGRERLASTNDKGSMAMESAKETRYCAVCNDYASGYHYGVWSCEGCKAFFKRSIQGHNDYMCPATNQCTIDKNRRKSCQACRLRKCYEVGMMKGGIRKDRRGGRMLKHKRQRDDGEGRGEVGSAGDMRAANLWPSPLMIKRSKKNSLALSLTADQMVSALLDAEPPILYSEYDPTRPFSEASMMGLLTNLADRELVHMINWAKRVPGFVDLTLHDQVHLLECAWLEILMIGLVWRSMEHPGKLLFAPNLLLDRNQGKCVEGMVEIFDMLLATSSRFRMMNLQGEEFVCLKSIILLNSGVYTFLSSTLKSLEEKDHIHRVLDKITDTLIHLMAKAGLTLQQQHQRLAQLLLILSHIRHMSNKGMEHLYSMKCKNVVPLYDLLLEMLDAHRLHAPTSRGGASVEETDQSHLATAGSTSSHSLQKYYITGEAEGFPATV

[13] = target: Voltage-gated inwardly rectifying potassium channel KCNH2 (Homo sapiens, UniProt Q12809); experiment: concentration-dependent hERG rescue from blockers – cell-based, thallium flux, dose response (AID 2121); type: ADME
[14] = target: T5, Polyadenylate-binding protein 1 (Homo sapiens, UniProt P11940); experiment: MLLE binding blockers, Cy5 peptide tracer – biochemical, fluorescence polarization, Cy5-PAM2 peptide, secondary, miRNA deadenylation inhibitor project, dose response (AID 602260); type: functional; conditions: read-out: IC50_Mean
[15] = target: T5, Polyadenylate-binding protein 1; experiment: MLLE domain peptide-binding blockers, IC50 – biochemical, fluorescence polarization, FITC-PAM2 peptide, dose response (AID 602259); type: functional; conditions: read-out: IC50_Mean
[16] = target: Peroxisome proliferator-activated receptor gamma/Nuclear receptor corepressor 2 (Homo sapiens, UniProt P37231+Q9Y618); experiment: Counterscreen for NR2E3 inverse agonists: TR-FRET-based biochemical high throughput dose response assay to identify inverse agonists of the interaction between peroxisome proliferator-activated receptor gamma (PPARg) and nuclear receptor co-repressor 2 (NCOR2).; type: functional
[17] = target: Photoreceptor-specific nuclear receptor (Homo sapiens, UniProt Q9Y5X4); experiment: ligands suppressing NR2E3 nuclear receptor activity – biochemical, TR-FRET, dose response (AID 463256); type: functional
[18] = target: T6, Endoribonuclease toxin MazF (Escherichia coli K-12, UniProt P0AE70); experiment: MazEF toxin-antitoxin RNase activation – biochemical, fluorescence, single-stranded RNA substrate, SAR follow-up (AID 588603); type: functional
T6 sequence (P0AE70 whole entry): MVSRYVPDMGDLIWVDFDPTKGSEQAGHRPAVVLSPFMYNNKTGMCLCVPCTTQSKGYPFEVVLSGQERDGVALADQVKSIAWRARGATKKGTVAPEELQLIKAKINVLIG

[19] = target: T6, Endoribonuclease toxin MazF; experiment: activation of MazEF endoribonuclease cleavage – biochemical, fluorescence, single-stranded RNA substrate, uHTS hits, dose response (AID 588481); type: functional
MEF = experiment: SAR analysis of small molecule cytotoxicity of MazEF TA System activators in embryonic fibroblast (MEF) cells. [Related pubchem assays (depositor defined):AID504720, AID504743]; type: functional; conditions: Mus musculus
[20] = target: T6, Endoribonuclease toxin MazF; experiment: SAR analysis of small molecule activators of the MazEF TA System via a fluorescence-based single-stranded RNase assay counterscreen. [Related pubchem assays (depositor defined):AID504720, AID504743]; type: functional
[21] = target: T6, Endoribonuclease toxin MazF; experiment: substrate-only fluorescence increase artefacts – biochemical, single-stranded RNase substrate, counter-screen for MazEF activator project, dose response (AID 588502); type: functional
Cytochrome P450 3A4 = Cytochrome P450 3A4 (Homo sapiens, UniProt P08684);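 further: CYP3A4 tested as one member of a cytochrome P450 panel screen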
Cytochrome P450 2C9 = Cytochrome P450 2C9 (Homo sapiens, UniProt P11712)
Cytochrome P450 2C9, sequence (P11712 whole entry): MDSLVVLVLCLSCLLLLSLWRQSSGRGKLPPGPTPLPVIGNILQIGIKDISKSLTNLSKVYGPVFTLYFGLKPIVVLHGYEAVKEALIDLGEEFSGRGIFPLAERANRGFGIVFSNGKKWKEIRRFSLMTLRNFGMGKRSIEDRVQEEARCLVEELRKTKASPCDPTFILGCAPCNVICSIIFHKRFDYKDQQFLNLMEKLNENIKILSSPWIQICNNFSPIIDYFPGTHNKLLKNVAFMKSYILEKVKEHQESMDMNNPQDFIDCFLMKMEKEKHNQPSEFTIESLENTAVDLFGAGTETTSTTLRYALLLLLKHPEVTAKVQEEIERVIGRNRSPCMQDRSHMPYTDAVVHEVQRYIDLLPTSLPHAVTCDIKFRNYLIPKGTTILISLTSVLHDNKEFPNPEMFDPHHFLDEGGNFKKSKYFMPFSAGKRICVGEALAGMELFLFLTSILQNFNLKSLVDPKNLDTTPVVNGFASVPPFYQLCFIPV

T5 sequence (P11940 whole entry, the tested form may be a part): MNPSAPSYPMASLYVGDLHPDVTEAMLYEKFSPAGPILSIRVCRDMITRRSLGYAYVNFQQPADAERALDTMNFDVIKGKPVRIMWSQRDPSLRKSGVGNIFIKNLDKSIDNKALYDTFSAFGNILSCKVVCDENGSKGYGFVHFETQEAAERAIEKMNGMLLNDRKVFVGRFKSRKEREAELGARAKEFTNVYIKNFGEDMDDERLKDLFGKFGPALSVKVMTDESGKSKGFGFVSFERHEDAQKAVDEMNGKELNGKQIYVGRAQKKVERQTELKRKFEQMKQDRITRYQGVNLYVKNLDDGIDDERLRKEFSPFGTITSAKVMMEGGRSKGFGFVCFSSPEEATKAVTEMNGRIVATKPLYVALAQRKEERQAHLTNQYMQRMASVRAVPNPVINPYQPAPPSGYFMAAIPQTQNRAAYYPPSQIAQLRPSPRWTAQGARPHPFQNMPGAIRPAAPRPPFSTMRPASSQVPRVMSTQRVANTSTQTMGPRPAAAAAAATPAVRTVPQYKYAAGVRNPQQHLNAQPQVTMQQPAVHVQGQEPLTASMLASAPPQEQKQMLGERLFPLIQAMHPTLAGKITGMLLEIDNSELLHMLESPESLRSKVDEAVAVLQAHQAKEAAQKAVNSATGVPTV
T1 sequence (P41145 whole entry): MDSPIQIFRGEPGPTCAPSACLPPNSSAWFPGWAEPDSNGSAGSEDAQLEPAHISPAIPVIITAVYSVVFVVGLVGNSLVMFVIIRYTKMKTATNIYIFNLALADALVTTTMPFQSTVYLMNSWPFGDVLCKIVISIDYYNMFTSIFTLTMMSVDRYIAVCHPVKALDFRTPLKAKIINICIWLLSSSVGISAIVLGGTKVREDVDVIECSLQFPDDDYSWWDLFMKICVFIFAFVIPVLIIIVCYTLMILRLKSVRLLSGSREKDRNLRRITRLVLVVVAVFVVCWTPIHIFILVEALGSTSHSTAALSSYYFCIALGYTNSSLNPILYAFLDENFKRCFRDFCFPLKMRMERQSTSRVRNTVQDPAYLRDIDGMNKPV
Voltage-gated inwardly rectifying potassium channel KCNH2, sequence (Q12809 whole entry): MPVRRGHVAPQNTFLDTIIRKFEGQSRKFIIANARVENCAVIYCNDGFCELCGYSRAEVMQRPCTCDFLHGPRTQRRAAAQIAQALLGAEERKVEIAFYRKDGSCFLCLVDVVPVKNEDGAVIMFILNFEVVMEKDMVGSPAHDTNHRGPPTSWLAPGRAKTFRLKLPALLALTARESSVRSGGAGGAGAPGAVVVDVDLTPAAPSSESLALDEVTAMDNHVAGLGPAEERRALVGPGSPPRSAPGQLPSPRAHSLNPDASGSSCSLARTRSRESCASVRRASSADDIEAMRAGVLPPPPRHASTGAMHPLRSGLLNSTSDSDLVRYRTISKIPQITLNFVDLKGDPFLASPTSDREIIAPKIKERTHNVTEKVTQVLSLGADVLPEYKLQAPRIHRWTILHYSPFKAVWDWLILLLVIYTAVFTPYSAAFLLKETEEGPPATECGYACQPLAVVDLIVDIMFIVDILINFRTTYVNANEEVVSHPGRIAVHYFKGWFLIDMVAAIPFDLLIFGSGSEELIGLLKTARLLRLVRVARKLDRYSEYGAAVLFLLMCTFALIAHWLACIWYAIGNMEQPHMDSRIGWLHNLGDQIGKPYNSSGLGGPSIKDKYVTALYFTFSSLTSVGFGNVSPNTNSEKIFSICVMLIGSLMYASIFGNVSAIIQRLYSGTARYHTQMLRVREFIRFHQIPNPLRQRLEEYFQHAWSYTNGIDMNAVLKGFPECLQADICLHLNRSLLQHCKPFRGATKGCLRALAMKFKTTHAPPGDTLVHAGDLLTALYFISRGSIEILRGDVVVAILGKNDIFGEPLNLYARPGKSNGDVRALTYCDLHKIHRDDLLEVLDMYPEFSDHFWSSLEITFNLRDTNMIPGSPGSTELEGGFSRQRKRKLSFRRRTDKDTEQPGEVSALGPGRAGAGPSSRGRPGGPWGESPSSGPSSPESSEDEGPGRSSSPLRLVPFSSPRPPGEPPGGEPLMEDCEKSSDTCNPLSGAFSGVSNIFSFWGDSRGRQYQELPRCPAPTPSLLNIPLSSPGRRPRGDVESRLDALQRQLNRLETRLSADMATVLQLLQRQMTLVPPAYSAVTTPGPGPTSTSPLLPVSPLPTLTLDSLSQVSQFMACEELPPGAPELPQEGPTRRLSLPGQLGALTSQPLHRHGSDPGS
Photoreceptor-specific nuclear receptor, sequence (Q9Y5X4 whole entry): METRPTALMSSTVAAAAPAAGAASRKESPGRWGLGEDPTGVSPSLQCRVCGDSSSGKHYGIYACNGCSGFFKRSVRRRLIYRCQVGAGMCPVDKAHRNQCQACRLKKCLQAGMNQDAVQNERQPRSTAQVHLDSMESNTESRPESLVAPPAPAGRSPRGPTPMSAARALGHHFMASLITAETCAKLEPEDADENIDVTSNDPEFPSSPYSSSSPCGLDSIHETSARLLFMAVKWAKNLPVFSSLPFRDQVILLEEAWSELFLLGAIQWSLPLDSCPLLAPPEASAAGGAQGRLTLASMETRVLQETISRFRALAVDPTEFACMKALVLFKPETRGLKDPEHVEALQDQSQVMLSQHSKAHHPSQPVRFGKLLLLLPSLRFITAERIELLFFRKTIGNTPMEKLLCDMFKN
Cytochrome P450 3A4, sequence (P08684 whole entry): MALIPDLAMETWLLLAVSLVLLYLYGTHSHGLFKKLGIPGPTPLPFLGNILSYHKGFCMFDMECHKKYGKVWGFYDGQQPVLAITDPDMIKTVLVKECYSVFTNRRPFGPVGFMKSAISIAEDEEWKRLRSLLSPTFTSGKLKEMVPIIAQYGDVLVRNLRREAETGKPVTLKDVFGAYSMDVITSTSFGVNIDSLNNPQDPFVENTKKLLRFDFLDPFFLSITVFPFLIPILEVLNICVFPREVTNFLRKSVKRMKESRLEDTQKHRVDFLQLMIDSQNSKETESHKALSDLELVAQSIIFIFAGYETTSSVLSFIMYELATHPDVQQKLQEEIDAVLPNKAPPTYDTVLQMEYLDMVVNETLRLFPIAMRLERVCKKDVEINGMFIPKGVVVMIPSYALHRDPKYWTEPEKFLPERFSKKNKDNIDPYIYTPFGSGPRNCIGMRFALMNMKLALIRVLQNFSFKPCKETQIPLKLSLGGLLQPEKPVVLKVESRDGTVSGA
Beta-galactosidase, sequence (Q8VNN2 whole entry): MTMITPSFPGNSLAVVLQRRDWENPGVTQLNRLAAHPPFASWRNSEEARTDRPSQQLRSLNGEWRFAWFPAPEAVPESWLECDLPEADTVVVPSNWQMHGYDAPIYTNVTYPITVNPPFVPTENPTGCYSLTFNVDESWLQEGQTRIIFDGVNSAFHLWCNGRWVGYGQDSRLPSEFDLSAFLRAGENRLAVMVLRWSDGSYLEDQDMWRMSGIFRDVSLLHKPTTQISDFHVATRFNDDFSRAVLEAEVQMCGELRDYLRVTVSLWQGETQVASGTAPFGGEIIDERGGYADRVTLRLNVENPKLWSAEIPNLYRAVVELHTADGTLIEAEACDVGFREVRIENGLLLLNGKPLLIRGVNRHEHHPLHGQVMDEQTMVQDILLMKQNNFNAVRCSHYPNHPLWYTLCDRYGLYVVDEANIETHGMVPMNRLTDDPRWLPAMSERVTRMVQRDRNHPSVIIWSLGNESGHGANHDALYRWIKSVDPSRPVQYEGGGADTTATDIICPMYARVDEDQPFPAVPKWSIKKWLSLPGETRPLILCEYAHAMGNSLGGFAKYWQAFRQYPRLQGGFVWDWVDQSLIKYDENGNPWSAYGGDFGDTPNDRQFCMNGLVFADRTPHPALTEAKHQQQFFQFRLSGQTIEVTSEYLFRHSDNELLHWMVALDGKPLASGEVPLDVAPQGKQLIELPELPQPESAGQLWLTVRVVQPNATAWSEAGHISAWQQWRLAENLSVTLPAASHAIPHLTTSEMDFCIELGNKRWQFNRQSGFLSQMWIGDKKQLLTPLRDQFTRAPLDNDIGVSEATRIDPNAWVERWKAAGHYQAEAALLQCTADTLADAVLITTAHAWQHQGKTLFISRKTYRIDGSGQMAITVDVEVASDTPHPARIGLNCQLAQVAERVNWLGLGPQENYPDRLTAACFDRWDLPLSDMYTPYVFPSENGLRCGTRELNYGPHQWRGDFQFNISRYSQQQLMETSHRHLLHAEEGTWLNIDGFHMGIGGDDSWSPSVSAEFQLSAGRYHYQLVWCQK
Sphingosine 1-phosphate receptor 4, sequence (O95977 whole entry): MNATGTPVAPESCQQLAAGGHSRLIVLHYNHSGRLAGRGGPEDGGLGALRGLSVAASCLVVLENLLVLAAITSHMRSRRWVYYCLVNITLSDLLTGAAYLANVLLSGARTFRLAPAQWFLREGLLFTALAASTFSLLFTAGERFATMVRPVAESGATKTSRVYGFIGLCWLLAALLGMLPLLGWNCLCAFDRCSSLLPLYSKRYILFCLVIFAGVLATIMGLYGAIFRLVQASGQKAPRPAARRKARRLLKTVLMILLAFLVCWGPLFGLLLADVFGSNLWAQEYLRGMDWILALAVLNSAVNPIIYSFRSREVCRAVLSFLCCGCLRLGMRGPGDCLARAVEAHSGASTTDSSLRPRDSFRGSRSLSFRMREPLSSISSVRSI

c1ccc2c(CN3CCCCCC3)c[nH]c2c1
IC50 [1]: 0.702 µM (active) | AC50 (INS1): 4.09 µM (active)

COc1ccc(NCN2C(=O)CCC2=O)cc1
IC50 [2]: > 100 µM (active)

CC1=NN(c2ccccc2)C(=O)/C1=C/C=C/C=C/N(C)C
IC50 [3]: 21.6 µM (inactive) | EC50 (Beta-galactosidase): 14.8 µM (active) | IC50 [4]: > 32 µM | EC50 [5]: > 100 µM (active) | CC50 [6]: 100 µM (active) | IC50 [7]: 68.1 µM (active) | IC50 [8]: 23.3 µM (inactive)

O=C(/C=C/c1ccccc1)CC(O)(c1ccccc1)C(F)(F)C(F)F (stereo not drawn)
IC50 [9]: 1.7 µM (active) | IC50 [10]: 30.6 µM (not active) | CC50 (Vero): 17.5 µM (active) | IC50 [11]: 2.27 µM (active) | AC50 [12]: 12.4 µM (active)

CCc1nnc2sc(-c3ccc(NC(=O)c4ccc5c(c4)OCCO5)cc3)nn12
EC50 (Estrogen receptor): 32.2 µM (not active)

Cc1ccc(S(=O)(=O)N=C(S)NC2CCCCC2)cc1
EC50 [13]: 9.12 µM (active) | IC50 [14]: > 66 µM (inactive) | IC50 [15]: > 66 µM (inactive)

O=C(CSc1nc(-c2ccccc2)nc2ccccc12)Nc1nccs1
IC50 [16]: > 39.8 µM (not active) | IC50 [17]: 5.93 µM (active) | EC50 [18]: 29.1 µM (inactive) | EC50 [19]: 20.7 µM (inactive) | CC50 (MEF): 29.7 µM (active) | EC50 [20]: > 99 µM (inactive) | EC50 [21]: 45 µM (inactive) | AC50 (Cytochrome P450 3A4): 1 µM (inconclusive) | AC50 (Cytochrome P450 2C9): 0.631 µM (inconclusive)
